Experimental data: article PMC11084348, “Characterization of Phenolic Compounds in Extra Virgin Olive Oil from Granada (Spain) and Evaluation of Its Neuroprotective Action” (International Journal of Molecular Sciences, 2024)

Legend:
[1] = biological target: T1, acetylcholinesterase from Electrophorus electricus (Electrophorus electricus, UniProt O42275); assay: AChE inhibition assay (Ellman, spectrophotometric); assay type: biochemical; settings: for IC50: 5 concentrations of standard, linear regression of dose-response curve
T1 construct: purchased Merck (Madrid, Spain)
T1 sequence (O42275 24-633): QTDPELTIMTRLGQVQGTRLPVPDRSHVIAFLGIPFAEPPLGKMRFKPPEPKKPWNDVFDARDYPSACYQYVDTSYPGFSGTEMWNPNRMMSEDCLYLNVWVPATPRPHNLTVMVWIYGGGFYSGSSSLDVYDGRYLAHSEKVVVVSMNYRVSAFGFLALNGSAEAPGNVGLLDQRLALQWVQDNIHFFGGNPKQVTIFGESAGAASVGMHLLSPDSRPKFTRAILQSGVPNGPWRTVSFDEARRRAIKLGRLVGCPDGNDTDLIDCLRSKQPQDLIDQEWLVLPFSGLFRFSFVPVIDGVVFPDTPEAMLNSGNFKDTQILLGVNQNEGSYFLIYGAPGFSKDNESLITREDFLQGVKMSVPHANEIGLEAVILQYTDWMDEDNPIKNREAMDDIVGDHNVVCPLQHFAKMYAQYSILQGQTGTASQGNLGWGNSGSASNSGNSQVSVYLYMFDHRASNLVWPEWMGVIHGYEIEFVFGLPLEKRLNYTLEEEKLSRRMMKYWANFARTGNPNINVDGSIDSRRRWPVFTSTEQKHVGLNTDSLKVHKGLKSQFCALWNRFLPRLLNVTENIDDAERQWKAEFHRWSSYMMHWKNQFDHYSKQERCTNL
Text: For the COX-2 assay, a COX-2 Inhibitor Screening Kit from Merck (Madrid, Spain) was purchased. For the analysis of AChE inhibition, acetylcholinesterase from Electrophorus electricus (lyophilized powder, 500 U), Base Trizma® (99.9% purity), chloridric acid (37%), Ellman Reactive (5,5′-dithiobis-(2-nitrobenzoic) acid, DTNB, 98% purity), acetylthiocholine iodide (≥98% purity), and physostigmine salicylate were purchased from Merck (Madrid, Spain). In both assays, a spectrophotometer from BioTek Synergy from Agilent Technologies (Santa Clara, CA, USA) was used.
AChE inhibitory activity was measured using a spectrophotometric assay described by Ellman et al. with slight modifications. First, in a 96-well plate, the AChE enzyme (10 mU mL^−1) (dissolved in 50 mM Tris-HCl buffer, pH 8.0) was incubated with the DTNB (150 μM) and 12 μL aliquots of the corresponding EVOO extracts in a final reaction volume of 250 μL. In addition, the inhibition control (physostigmine), the standards Ol, Lut, and Hyty, and the positive control of AChE activity (substituting the extracts/standards by the solvent of the extracts: ethanol:water (1:1, v/v) were tested. After 15 min of incubation at 30 °C, the substrate (acetylthiocholine iodide 150 μM, ATCh) was added, and AChE activity was determined by measuring the increase in absorbance reading at 405 nm for 15 min at 30 °C in a spectrophotometer (BioTek Synergy, Agilent Technologies, Santa Clara, CA, USA).
The AChE inhibitory activity of the EVOO extracts was expressed as a percentage of inhibition with respect to the positive activity control, indicating the average value obtained by analyzing the 3 extraction replicates obtained from each EVOO extract and analyzing them in duplicate. IC50, the concentration of a standard bioactive compound capable of inhibiting 50% of AChE activity, was determined by measuring 5 different concentrations of the standard compound in the reaction medium and interpolating in the linear regression of the dosis-response curve.

COX-2 = biological target: T2, COX-2 (Homo sapiens, UniProt P35354); assay: biochemical; settings: 5 concentrations of standard, linear regression of dose-response curve
T2 construct: purchased Merck (Madrid, Spain)
T2 sequence (P35354 18-604): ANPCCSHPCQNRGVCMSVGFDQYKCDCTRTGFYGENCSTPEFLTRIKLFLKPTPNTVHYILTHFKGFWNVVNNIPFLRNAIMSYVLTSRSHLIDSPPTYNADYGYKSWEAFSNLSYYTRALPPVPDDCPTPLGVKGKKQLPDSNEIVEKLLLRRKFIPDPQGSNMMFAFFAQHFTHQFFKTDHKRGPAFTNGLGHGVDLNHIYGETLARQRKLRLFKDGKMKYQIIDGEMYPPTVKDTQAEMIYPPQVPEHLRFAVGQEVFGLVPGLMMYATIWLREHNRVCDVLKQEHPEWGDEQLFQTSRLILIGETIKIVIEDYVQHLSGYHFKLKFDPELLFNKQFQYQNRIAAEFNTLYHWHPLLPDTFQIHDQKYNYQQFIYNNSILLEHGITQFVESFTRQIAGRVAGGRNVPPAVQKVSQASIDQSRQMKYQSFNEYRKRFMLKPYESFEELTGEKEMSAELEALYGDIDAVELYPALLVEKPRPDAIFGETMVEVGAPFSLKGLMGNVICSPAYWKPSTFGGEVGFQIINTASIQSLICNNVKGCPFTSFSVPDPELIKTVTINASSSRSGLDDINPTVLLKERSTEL
Procedure: For the COX-2 assay, a COX-2 Inhibitor Screening Kit from Merck (Madrid, Spain) was purchased. […] In both assays, a spectrophotometer from BioTek Synergy from Agilent Technologies (Santa Clara, CA, USA) was used.
The COX-2 assay was performed using the COX fluorescent inhibitor assay kit with slight modifications and measured spectrophotometrically (BioTek Synergy, Agilent Technologies, Santa Clara, CA, USA). EVOO extracts were diluted (1/200) in ethanol:water (1:1, v/v). Briefly, the assay was carried out in a 96-well plate, in which 10 μL of diluted EVOO extracts and 80 μL of the reaction mix (containing the cofactor, the probe, and the COX-2 enzyme) were added. […] EVOO extracts were analyzed in duplicate.

SMILES	IC50 [1] [µM]	inhibition at 0.025 µM ([1]; 0.025 µM of physostigmin in 250 μL of medium reaction containing 2.5 mU of AChE) [%]	IC50 (COX-2) [µM]
O=c1cc(-c2ccc(O)c(O)c2)oc2cc(O)cc(O)c12 [Lut, luteolin]	145	–	–
CNC(=O)Oc1ccc2c(c1)[C@]1(C)CCN(C)[C@@H]1N2C [Physostigmin, physostigmine salicylate]	–	48.5 ± 1.69	–
C/C=C1/[C@H](O[C@@H]2O[C@H](CO)[C@@H](O)[C@H](O)[C@H]2O)OC=C(C(=O)OC)[C@H]1CC(=O)OCCc1ccc(O)c(O)c1 [Ol, oleuropein]	417	–	9.65
OCCc1ccc(O)c(O)c1 [Hyty, hydroxytyrosol]	328	–	10.8
